“Also recorded” adds a separate entry of the source. Ends that are not written are not given here.
Key:
L. monocytogenes CBC1 = assay: Deferred antagonism assay; format: cell-based, Listeria monocytogenes; set-up: key: + = Enhanced bioactivity relative to control; − = Bioactivity equal to or less than control; NA = no activity evident; details: L. mono CBC1; XX and XXX hinge mutant producers
Protocol: (§1) Deferred antagonism assays were performed by replicating strains on GM17 or GM17 x-gal agar plates and allowing them to grow overnight before overlaying with either GM17/BHI/TS/MH agar (0.75% w/v agar) seeded with the appropriate indicator strain. Zone size was calculated as the diameter of the zone of clearing minus the diameter of bacterial growth (5 mm) For higher throughput screening of N20PXX, XM21VX, XXK22T and XXX banks deferred antagonism assays were performed by replicating strains using a 96 pin replicator (Boekel) or spotting 5 μl of a fresh overnight culture on GM17 agar plates and allowing them to grow overnight. […] Additional sets of indicators were employed to further assess/reassess the bioactivity of a number of strains. […] For well-diffusion assays molten agar was cooled to 48° C. and seeded with the appropriate indicator strain. The inoculated medium was rapidly transferred into sterile Petri plates in 50 ml volumes, allowed to solidify and dried. Wells (4.6 mm in diameter) were then made in the seeded plates. Purified nisin and mutant nisins were resuspended in 0.005% acetic acid, serially diluted, 50 μl volumes were dispensed into the aforementioned wells and the plates incubated at 37° C. overnight. Bioactivity was expressed as arbitrary units/ml (AU/ml) and calculated as the reciprocal of the highest dilution that gave a definite zone multiplied by the conversion factor (i.e. 20 when 50 μl was used) (Ryan et al., 1996).
(§2) As a consequence of the enhanced activities of K22T and K22S, a more in-depth investigation of this region was carried out. Saturation mutagenesis was undertaken to create a bank of nisin A hinge derivatives containing the vast majority of possible amino acid substitutions for each position. Although pPTPL was used successfully for random mutagenesis, its relatively large size of approx 10.5 kb was considered unsuitable for the complete plasmid PCR amplification approach utilized for saturation mutagenesis. A smaller (approx 6 kb) E. coli-L. lactis shuttle vector pCI372 was considered to be potentially more useful. Its suitability with respect to the in trans expression of nisA was confirmed by the ability of pDFO5 to restore the nisin positive phenotype. Saturation mutagenesis was performed on each codon using pDF05 and oligonucleotides (Table 5) that replace the specific codon with a NNK triplet, potentially encoding all 20 standard amino acids. Following complete plasmid amplification and introduction into the intermediate Top10 host, sequence analysis of a pooled bank of pDF05 derivatives confirmed randomization. Introduction of these variants into L. lactis NZ9800 allowed the expression of mutant nisin A peptides for further analysis. […] 46 residue conversions were isolated. All strains, regardless of bioactivity, were assessed with a view to comprehensively assessing the consequences of each individual hinge alteration.

L. monocytogenes CBC2 = assay: Deferred antagonism assay; format: cell-based, Listeria monocytogenes; set-up: key: + = Enhanced bioactivity relative to control; − = Bioactivity equal to or less than control; NA = no activity evident; details: L. mono CBC2; XX and XXX hinge mutant producers
Protocol: as §1, §2

L. monocytogenes CBC3 = assay: Deferred antagonism assay; format: cell-based, Listeria monocytogenes; set-up: key: + = Enhanced bioactivity relative to control; − = Bioactivity equal to or less than control; NA = no activity evident; details: L. mono CBC3; XX and XXX hinge mutant producers
Protocol: as §1, §2

L. lactis CBC7 = assay: Deferred antagonism assay; format: cell-based; set-up: key: + = Enhanced bioactivity relative to control; − = Bioactivity equal to or less than control; NA = no activity evident; details: XX and XXX hinge mutant producers
Protocol: as §1, §2

L. lactis CBC8 = assay: Deferred antagonism assay; format: cell-based; set-up: key: + = Enhanced bioactivity relative to control; − = Bioactivity equal to or less than control; NA = no activity evident; details: XX and XXX hinge mutant producers
Protocol: as §1, §2

S. aureus CBC4 = assay: Deferred antagonism assay; format: cell-based; set-up: key: + = Enhanced bioactivity relative to control; − = Bioactivity equal to or less than control; NA = no activity evident; details: XX and XXX hinge mutant producers
Protocol: as §1, §2

L. plantarum CBC6 = assay: Deferred antagonism assay; format: cell-based, Lactobacillus plantarum; set-up: key: + = Enhanced bioactivity relative to control; − = Bioactivity equal to or less than control; NA = no activity evident; details: XX and XXX hinge mutant producers
Protocol: as §1, §2

indicator strains = assay: Deferred antagonism assays, various indicator strains (summary); format: cell-based; details: for Target strain against which the hinge mutant was selected for enhanced bioactivity: XX and XXX banks, L. lactis HP*: enhanced or equal; for Target strain against which the hinge mutant was selected for enhanced bioactivity / Strain(s) against which the derivative (producing strain) displays enhanced bioactivity: relative to nisin A-producing control; for number of targets with enhanced activity: of the 8 additional targets tested; for Strain(s) against which the derivative (producing strain) displays enhanced bioactivity: value = strains listed
Protocol: as §1

Substance | bioactivity relative to a nisin A-producing control (L. monocytogenes CBC1) | bioactivity relative to a nisin A-producing control (L. monocytogenes CBC2) | bioactivity relative to a nisin A-producing control (L. monocytogenes CBC3) | bioactivity relative to a nisin A-producing control (L. lactis CBC7) | bioactivity relative to a nisin A-producing control (L. lactis CBC8) | bioactivity relative to a nisin A-producing control (S. aureus CBC4) | bioactivity relative to a nisin A-producing control (L. plantarum CBC6) | Target strain against which the hinge mutant was selected for enhanced bioactivity (indicator strains) | number of targets with enhanced activity (indicator strains) | Strain(s) against which the derivative (producing strain) displays enhanced bioactivity (indicator strains)
NisinA GLA (ITSISLCTPGCKTGALMGCGLATATCHCSIHVSK; cysteine pairing not given here; also: lantibiotic nisin-A; UniProt P13068 24-57, looked up, variant N20G M21L K22A) [nisin A hinge variant GLA (i.e. N20G, M21L, K22A)] | − | − | − | − | − | − | − | B. cereus UCC1 | 1 | B. cereus UCC1
NisinA GVK | − | − | + | + | − | + | − | C. sporogenes UCC1 | 3 | C. sporogenes UCC1, L. monocytogenes CBC3, S. aureus CBC4 and L. lactis CBC7 and C. sporogenes UCC1, L. mono CBC3, S. aureus CBC4, L. lactis and CBC7
NisinA PAQ (ITSISLCTPGCKTGALMGCPAQTATCHCSIHVSK; not fully specified (bridges); also: lantibiotic nisin-A: lanthionine rings and dehydrated residues, places not given here; UniProt P13068 24-57, looked up, variant N20P M21A K22Q) [nisin A hinge variant PAQ (i.e. N20P, M21A, K22Q)] |  |  |  |  |  |  |  | L. lactis HP* | 3 | S. agalactiae ATCC13813 and strain B and S. aureus NCDO1499
NisinA PGA (ITSISLCTPGCKTGALMGCPGATATCHCSIHVSK; not fully specified (bridges); also: lantibiotic nisin-A: lanthionine rings and dehydrated residues, places not given here; UniProt P13068 24-57, looked up, variant N20P M21G K22A) [nisin A hinge variant PGA (i.e. N20P, M21G, K22A)] |  |  |  |  |  |  |  | L. lactis HP* | 3 | S. agalactiae ATCC13813 and strain B and S. aureus NCDO1499
NisinA PHT (ITSISLCTPGCKTGALMGCPHTTATCHCSIHVSK; not fully specified (bridges); also: lantibiotic nisin-A: lanthionine rings and dehydrated residues, places not given here; UniProt P13068 24-57, looked up, variant N20P M21H K22T) [nisin A hinge variant PHT (i.e. N20P, M21H, K22T)] |  |  |  |  |  |  |  | Strep. agalactiae ATCC 13813 | 3 | Strep. agalactiae ATCC 13813 and Strain B, and L. lactis MG1363; also recorded: Strep. agalactiae ATCC 13813, L. lactis MG1363, S. agalactiae
NisinA PIH (ITSISLCTPGCKTGALMGCPIHTATCHCSIHVSK; not fully specified (bridges); also: lantibiotic nisin-A: lanthionine rings and dehydrated residues, places not given here; UniProt P13068 24-57, looked up, variant N20P M21I K22H) [nisin A hinge variant PIH (i.e. N20P, M21I, K22H)] |  |  |  |  |  |  |  | L. lactis HP* | 1 | S. agalactiae Strain B
NisinA PIT (ITSISLCTPGCKTGALMGCPITTATCHCSIHVSK; not fully specified (bridges); also: lantibiotic nisin-A: lanthionine rings and dehydrated residues, places not given here; UniProt P13068 24-57, looked up, variant N20P M21I K22T) [nisin A hinge variant PIT (i.e. N20P, M21I, K22T)] |  |  |  |  |  |  |  | L. lactis HP* | 3 | S. agalactiae ATCC13813 and strain B and S. aureus NCDO1499
NisinA PIV (ITSISLCTPGCKTGALMGCPIVTATCHCSIHVSK; not fully specified (bridges); also: lantibiotic nisin-A: lanthionine rings and dehydrated residues, places not given here; UniProt P13068 24-57, looked up, variant N20P M21I K22V) [nisin A hinge variant PIV (i.e. N20P, M21I, K22V)] |  |  |  |  |  |  |  | L. lactis HP* | 3 | S. agalactiae ATCC13813 and strain B and S. aureus NCDO1499
NisinA PMA |  |  |  |  |  |  |  | Strep. agalactiae ATCC 13813 | 1 | Strep. agalactiae ATCC 13813 and S. aureus DPC5246
PHM: nisin A hinge variant PHM (i.e. N20P, M21H, K22M) (ITSISLCTPGCKTGALMGCPHMTATCHCSIHVSK; not fully specified (bridges); also: lantibiotic nisin-A: lanthionine rings and dehydrated residues, places not given here; UniProt P13068 24-57, looked up, variant N20P M21H K22M) |  |  |  |  |  |  |  | Strep. agalactiae ATCC 13813 | 2 | Strep. agalactiae ATCC 13813 and Strain B; also recorded: Strep. agalactiae ATCC 13813, S. agalactiae Strain B
